In patent US20240116985A1, “STAPLED PEPTIDES AND METHODS THEREOF” (priority 2020, published 2024):

Molecular target: T1, full-length beta-Catenin (Uniprot ID P35222) (Homo sapiens, UniProt P35222)
T1 construct: 10 nM full-length beta-Catenin (Uniprot ID P35222)
T1 sequence (P35222 1-781): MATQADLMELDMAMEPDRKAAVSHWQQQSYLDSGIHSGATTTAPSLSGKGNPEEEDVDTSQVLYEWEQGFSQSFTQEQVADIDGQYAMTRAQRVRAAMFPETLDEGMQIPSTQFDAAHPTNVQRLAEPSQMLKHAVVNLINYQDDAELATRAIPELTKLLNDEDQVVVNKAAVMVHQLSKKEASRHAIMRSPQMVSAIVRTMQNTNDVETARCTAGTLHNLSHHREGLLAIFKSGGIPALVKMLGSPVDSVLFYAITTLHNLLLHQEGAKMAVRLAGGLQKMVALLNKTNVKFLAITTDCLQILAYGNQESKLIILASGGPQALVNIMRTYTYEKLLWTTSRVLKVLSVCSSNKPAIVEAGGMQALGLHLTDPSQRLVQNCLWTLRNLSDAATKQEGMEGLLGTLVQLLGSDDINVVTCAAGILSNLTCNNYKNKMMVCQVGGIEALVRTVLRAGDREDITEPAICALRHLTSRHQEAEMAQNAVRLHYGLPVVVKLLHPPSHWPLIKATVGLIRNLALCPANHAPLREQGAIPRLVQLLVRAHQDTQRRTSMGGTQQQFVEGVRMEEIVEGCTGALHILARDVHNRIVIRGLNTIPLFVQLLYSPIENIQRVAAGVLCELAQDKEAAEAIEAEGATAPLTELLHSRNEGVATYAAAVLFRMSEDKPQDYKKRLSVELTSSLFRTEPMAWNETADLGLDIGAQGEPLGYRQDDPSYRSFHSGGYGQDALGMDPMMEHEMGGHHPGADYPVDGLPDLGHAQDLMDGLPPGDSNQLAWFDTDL
Test: Fluorescence polarization IC50 (beta-catenin / 5FAM-TCF4 10-53 competition)
Assay type: binding
Details: fluorescence polarization; read-out: beta-Catenin FP IC50

SMILES | IC50 [nM]
CC(=O)N1CCC[C@]12CC=CCCCC1(CCCC=CCCCOC(=O)N3CC[C@@](C(=O)N[C@@H](Cc4ccsc4)C(=O)N[C@@H](Cc4csc5ccccc45)C(=O)N[C@@H](Cc4ccccc4)C(N)=O)(C3)NC(=O)[C@H](CC(C)C)NC(=O)[C@H](Cc3ccccc3)NC(=O)[C@H](C)NC(=O)[C@H](C)NC(=O)[C@H](CN(CC(=O)O)CC(F)(F)F)NC(=O)[C@H](CC(=O)O)NC1=O)NC(=O)[C@H](CC(C)(C)C)NC(=O)[C@H](CC(=O)O)NC2=O (stereo partly drawn) [I-1749, Ac-PL3-Asp-Npg-B5-Asp-TfeGA-Ala-Ala-Phe-Leu-PyrS2-3Thi-BztA-Phe-NH2] | 145
CC(=O)N1CCC[C@]12CC=CCCCC1(CCCC=CCCCOC(=O)N3CC[C@@](C(=O)N[C@@H](Cc4ccsc4)C(=O)N[C@@H](Cc4csc5ccccc45)C(=O)N[C@H](C(N)=O)C(C)C)(C3)NC(=O)[C@H](CC(C)C)NC(=O)[C@H](Cc3ccccc3)NC(=O)[C@H](C)NC(=O)[C@H](C)NC(=O)[C@H](CN(CC(=O)O)CC(F)(F)F)NC(=O)[C@H](CC(=O)O)NC1=O)NC(=O)[C@H](CC(C)(C)C)NC(=O)[C@H](CC(=O)O)NC2=O (stereo partly drawn) [I-1751, Ac-PL3-Asp-Npg-B5-Asp-TfeGA-Ala-Ala-Phe-Leu-PyrS2-3Thi-BztA-Val-NH2] | 104
CC(=O)N1CCC[C@]12CC=CCCCC1(CCCC=CCCCOC(=O)N3CC[C@@](C(=O)N[C@@H](Cc4ccsc4)C(=O)N[C@@H](Cc4csc5ccccc45)C(=O)N[C@H](C(N)=O)C(C)C)(C3)NC(=O)[C@H](CC(C)C)NC(=O)[C@H](Cc3ccccc3)NC(=O)[C@H](C)NC(=O)[C@H](C)NC(=O)[C@H](CN(CC(=O)O)CC(F)(F)F)NC(=O)[C@H](CC(=O)O)NC1=O)NC(=O)[C@H](CC(C)(C)C)NC(=O)[C@H](CC(=O)O)NC2=O (stereo partly drawn) [I-1752, Ac-PL3-Asp-Npg-B5-Asp-TfeGA-Ala-Ala-Phe-Leu-PyrS2-3Thi-BztA-Val-NH2] | 87
CC(=O)N1CCC[C@]12CCCCCCC1(CCCCCCCCOC(=O)N3CC[C@@](C(=O)N[C@@H](Cc4ccsc4)C(=O)N[C@@H](Cc4csc5ccccc45)C(=O)N[C@@H](Cc4ccccc4)C(N)=O)(C3)NC(=O)[C@H](CC(C)C)NC(=O)[C@H](Cc3ccccc3)NC(=O)[C@H](C)NC(=O)[C@H](C)NC(=O)[C@H](CN(CC(=O)O)CC(F)(F)F)NC(=O)[C@H](CC(=O)O)NC1=O)NC(=O)[C@H](CC(C)(C)C)NC(=O)[C@H](CC(=O)O)NC2=O (stereo partly drawn) [I-1755, Ac-PL3-Asp-Npg-B5-Asp-TfeGA-Ala-Ala-Phe-Leu-PyrS2-3Thi-BztA-Phe-NH2] | 570
CC(=O)N1CCC[C@]12CCCCCCC1(CCCCCCCCOC(=O)N3CC[C@@](C(=O)N[C@@H](Cc4ccsc4)C(=O)N[C@@H](Cc4csc5ccccc45)C(=O)N[C@@H](Cc4ccccc4)C(N)=O)(C3)NC(=O)[C@H]([C@@H](C)O)NC(=O)[C@H](Cc3ccccc3)NC(=O)[C@H](C)NC(=O)[C@H](C)NC(=O)[C@H](CN(CC(=O)O)CC(F)(F)F)NC(=O)[C@H](CC(=O)O)NC1=O)NC(=O)[C@H](CC(C)(C)C)NC(=O)[C@H](CC(=O)O)NC2=O (stereo partly drawn) [I-1756, Ac-PL3-Asp-Npg-B5-Asp-TfeGA-Ala-Ala-Phe-Thr-PyrS2-3Thi-BztA-Phe-NH2] | 329
CC(=O)N1CCC[C@]12CC=CCCCC1(CCCC=CCCCOC(=O)N3CC[C@@](C(=O)N[C@@H](Cc4ccsc4)C(=O)N[C@@H](Cc4csc5ccccc45)C(=O)N[C@@H](CCC(N)=O)C(N)=O)(C3)NC(=O)[C@H](CC(C)C)NC(=O)[C@H](Cc3ccccc3)NC(=O)[C@H](C)NC(=O)[C@H](C)NC(=O)[C@H](CN(CC(=O)O)CC(F)(F)F)NC(=O)[C@H](C(C)(C)C(=O)O)NC1=O)NC(=O)[C@H](CC(C)(C)C)NC(=O)[C@H](CC(=O)O)NC2=O (stereo partly drawn) [I-1771, Ac-PL3-Asp-Npg-B5-bMe2Asp-TfeGA-Ala-Ala-Phe-Leu-PyrS2-3Thi-BztA-Gln-NH2] | 209

The next lines start with the values.

IC50 [nM] | SMILES
802 | CC(=O)N1CCC[C@]12CCCCCCC1(CCCCCCCCOC(=O)N3CC[C@@](C(=O)N[C@@H](Cc4ccsc4)C(=O)N[C@@H](Cc4csc5ccccc45)C(=O)N[C@@H](CC(C)C)C(N)=O)(C3)NC(=O)[C@H](CC(C)C)NC(=O)[C@H](Cc3ccccc3)NC(=O)[C@H](C)NC(=O)[C@H](C)NC(=O)[C@H](CN(CC(=O)O)CC(F)(F)F)NC(=O)[C@H](CC(=O)O)NC1=O)NC(=O)[C@H](CC(C)(C)C)NC(=O)[C@H](CC(=O)O)NC2=O (stereo partly drawn) [I-1753, Ac-PL3-Asp-Npg-B5-Asp-TfeGA-Ala-Ala-Phe-Leu-PyrS2-3Thi-BztA-Leu-NH2]
660 | CC(=O)N1CCC[C@]12CCCCCCC1(CCCCCCCCOC(=O)N3CC[C@@](C(=O)N[C@@H](Cc4ccsc4)C(=O)N[C@@H](Cc4csc5ccccc45)C(=O)N[C@@H](CC(C)C)C(N)=O)(C3)NC(=O)[C@H]([C@@H](C)O)NC(=O)[C@H](Cc3ccccc3)NC(=O)[C@H](C)NC(=O)[C@H](C)NC(=O)[C@H](CN(CC(=O)O)CC(F)(F)F)NC(=O)[C@H](CC(=O)O)NC1=O)NC(=O)[C@H](CC(C)(C)C)NC(=O)[C@H](CC(=O)O)NC2=O (stereo partly drawn) [I-1754, Ac-PL3-Asp-Npg-B5-Asp-TfeGA-Ala-Ala-Phe-Thr-PyrS2-3Thi-BztA-Leu-NH2]
449 | CC(=O)N1CCC[C@]12CCCCCCC1(CCCCCCCCOC(=O)N3CC[C@@](C(=O)N[C@@H](Cc4ccsc4)C(=O)N[C@@H](Cc4csc5ccccc45)C(=O)N[C@H](C(N)=O)C(C)C)(C3)NC(=O)[C@H](CC(C)C)NC(=O)[C@H](Cc3ccccc3)NC(=O)[C@H](C)NC(=O)[C@H](C)NC(=O)[C@H](CN(CC(=O)O)CC(F)(F)F)NC(=O)[C@H](CC(=O)O)NC1=O)NC(=O)[C@H](CC(C)(C)C)NC(=O)[C@H](CC(=O)O)NC2=O (stereo partly drawn) [I-1757, Ac-PL3-Asp-Npg-B5-Asp-TfeGA-Ala-Ala-Phe-Leu-PyrS2-3Thi-BztA-Val-NH2]
235 | CC(=O)N1CCC[C@]12CCCCCCC1(CCCCCCCCOC(=O)N3CC[C@@](C(=O)N[C@@H](Cc4ccsc4)C(=O)N[C@@H](Cc4csc5ccccc45)C(=O)N[C@H](C(N)=O)C(C)C)(C3)NC(=O)[C@H]([C@@H](C)O)NC(=O)[C@H](Cc3ccccc3)NC(=O)[C@H](C)NC(=O)[C@H](C)NC(=O)[C@H](CN(CC(=O)O)CC(F)(F)F)NC(=O)[C@H](CC(=O)O)NC1=O)NC(=O)[C@H](CC(C)(C)C)NC(=O)[C@H](CC(=O)O)NC2=O (stereo partly drawn) [I-1758, Ac-PL3-Asp-Npg-B5-Asp-TfeGA-Ala-Ala-Phe-Thr-PyrS2-3Thi-BztA-Val-NH2]
667 | CC(=O)N1CCC[C@]12CCCCCCC1(CCCCCCCCOC(=O)N3CC[C@@](C(=O)N[C@@H](Cc4ccsc4)C(=O)N[C@@H](Cc4csc5ccccc45)C(=O)N[C@@H](CC(C)C)C(N)=O)(C3)NC(=O)[C@H](CC(C)C)NC(=O)[C@H](Cc3ccccc3)NC(=O)[C@H](C)NC(=O)[C@H](CCCCNC(C)C)NC(=O)[C@H](CN(CC(=O)O)CC(F)(F)F)NC(=O)[C@H](CC(=O)O)NC1=O)NC(=O)[C@H](CC(C)(C)C)NC(=O)[C@H](CC(=O)O)NC2=O (stereo partly drawn) [I-1765, Ac-PL3-Asp-Npg-B5-Asp-TfeGA-iPrLys-Ala-Phe-Leu-PyrS2-3Thi-BztA-Leu-NH2]
267 | CC(=O)N1CCC[C@]12CCCCCCC1(CCCCCCCCOC(=O)N3CC[C@@](C(=O)N[C@@H](Cc4ccsc4)C(=O)N[C@@H](Cc4csc5ccccc45)C(=O)N[C@@H](CC(C)C)C(N)=O)(C3)NC(=O)[C@H]([C@@H](C)O)NC(=O)[C@H](Cc3ccccc3)NC(=O)[C@H](C)NC(=O)[C@H](CCCCNC(C)C)NC(=O)[C@H](CN(CC(=O)O)CC(F)(F)F)NC(=O)[C@H](CC(=O)O)NC1=O)NC(=O)[C@H](CC(C)(C)C)NC(=O)[C@H](CC(=O)O)NC2=O (stereo partly drawn) [I-1766, Ac-PL3-Asp-Npg-B5-Asp-TfeGA-iPrLys-Ala-Phe-Thr-PyrS2-3Thi-BztA-Leu-NH2]
327 | CC(=O)N1CCC[C@]12CCCCCCC1(CCCCCCCCOC(=O)N3CC[C@@](C(=O)N[C@@H](Cc4ccsc4)C(=O)N[C@@H](Cc4csc5ccccc45)C(=O)N[C@@H](Cc4ccccc4)C(N)=O)(C3)NC(=O)[C@H](CC(C)C)NC(=O)[C@H](Cc3ccccc3)NC(=O)[C@H](C)NC(=O)[C@H](CCCCNC(C)C)NC(=O)[C@H](CN(CC(=O)O)CC(F)(F)F)NC(=O)[C@H](CC(=O)O)NC1=O)NC(=O)[C@H](CC(C)(C)C)NC(=O)[C@H](CC(=O)O)NC2=O (stereo partly drawn) [I-1767, Ac-PL3-Asp-Npg-B5-Asp-TfeGA-iPrLys-Ala-Phe-Leu-PyrS2-3Thi-BztA-Phe-NH2]
419 | CC(=O)N1CCC[C@]12CCCCCCC1(CCCCCCCCOC(=O)N3CC[C@@](C(=O)N[C@@H](Cc4ccsc4)C(=O)N[C@@H](Cc4csc5ccccc45)C(=O)N[C@H](C(N)=O)C(C)C)(C3)NC(=O)[C@H](CC(C)C)NC(=O)[C@H](Cc3ccccc3)NC(=O)[C@H](C)NC(=O)[C@H](CCCCNC(C)C)NC(=O)[C@H](CN(CC(=O)O)CC(F)(F)F)NC(=O)[C@H](CC(=O)O)NC1=O)NC(=O)[C@H](CC(C)(C)C)NC(=O)[C@H](CC(=O)O)NC2=O (stereo partly drawn) [I-1769, Ac-PL3-Asp-Npg-B5-Asp-TfeGA-iPrLys-Ala-Phe-Leu-PyrS2-3Thi-BztA-Val-NH2]
